Measured values published in PMC2248166, “Quantitative peptide binding motifs for 19 human and mouse MHC class I molecules derived using positional scanning combinatorial peptide libraries” (Immunome Research, 2008).
Where a SMILES comes first, the peptide text is derived from it.

Each molecule was assayed against HLA A*3201 (Homo sapiens, UniProt P04439, A270S/D101S/D185E/E176V/E277Q/F133L/G103R/G107R/G231S/H175R/I121M/I218V/I322F/K168Q/L105A/L300P/L318F/M331R/P208A/P217A/Q94H/R106L/R138Q/S129P/T104I/T323A/T345S/V100E/V321M/V358M) (assay: biochemical).
Assay type: binding
`CC[C@H](C)[C@H](NC(=O)[C@@H](NC(=O)[C@@H](N)CO)[C@@H](C)CC)C(=O)N[C@@H](CC(N)=O)C(=O)N[C@@H](CO)C(=O)N[C@@H](CC(N)=O)C(=O)N[C@H](C(=O)N[C@H](C(=O)N[C@@H](Cc1c[nH]c2ccccc12)C(=O)O)[C@@H](C)O)C(C)C` [3102.0419] (H-SIINSNVTW-OH) showed an IC50 of 11 nM.
In the case of `CC[C@H](C)[C@H](NC(=O)[C@H](CC(C)C)NC(=O)[C@H](Cc1ccccc1)NC(=O)[C@@H](NC(=O)[C@@H](N)CCCNC(=N)N)[C@@H](C)O)C(=O)N[C@@H](CC(=O)O)C(=O)N[C@@H](CC(C)C)C(=O)N[C@@H](C)C(=O)N[C@@H](Cc1ccccc1)C(=O)O` [3102.0420] (H-RTFLIDLAF-OH), the IC50 is reported as 0.48 nM.
Molecule `CC[C@H](C)[C@H](NC(=O)[C@H](CO)NC(=O)[C@H](CC(C)C)NC(=O)[C@@H](NC(=O)[C@H](Cc1ccccc1)NC(=O)[C@H](CC(N)=O)NC(=O)[C@H](CCC(=O)O)NC(=O)[C@@H](NC(=O)[C@@H](N)CCCNC(=N)N)[C@@H](C)O)C(C)C)C(=O)O` [3102.0421] (H-RTENFVLSI-OH) has an IC50 of 1.6 nM.
`CC[C@H](C)[C@H](N)C(=O)N[C@H](C(=O)N[C@@H](Cc1ccc(O)cc1)C(=O)N[C@@H](CCC(=O)O)C(=O)N[C@@H](CCCCN)C(=O)N[C@@H](CO)C(=O)N[C@@H](CC(N)=O)C(=O)N[C@@H](CC(N)=O)C(=O)N[C@H](C(=O)O)[C@@H](C)CC)[C@@H](C)O` [3102.0422] (H-ITYEKSNNI-OH) was tested, and the IC50 was 18 nM.
`CC[C@H](C)[C@H](NC(=O)[C@@H](NC(=O)[C@H](CCCNC(=N)N)NC(=O)[C@@H]1CCCN1C(=O)[C@H](Cc1ccccc1)NC(=O)[C@H](Cc1ccccc1)NC(=O)[C@H](CCSC)NC(=O)[C@@H](NC(=O)[C@H](C)N)[C@@H](C)CC)[C@@H](C)O)C(=O)O` [3102.0423] (H-AIMFFPRTI-OH) showed an IC50 of 1.1 nM.
Work on `CC(C)C[C@H](NC(=O)[C@@H](N)C(C)C)C(=O)N[C@@H](Cc1ccc(O)cc1)C(=O)N[C@@H](CC(N)=O)C(=O)N[C@@H](CC(N)=O)C(=O)N[C@H](C(=O)N[C@H](C(=O)N[C@@H](CCC(=O)O)C(=O)N[C@@H](Cc1ccccc1)C(=O)O)C(C)C)C(C)C` [3102.0424] (H-VLYNNVVEF-OH) yielded an IC50 of 1.5 nM.
With `CC[C@H](C)[C@H](NC(=O)[C@@H](N)CO)C(=O)N[C@@H](Cc1ccc(O)cc1)C(=O)N[C@@H](CCCNC(=N)N)C(=O)N[C@@H](CCSC)C(=O)N[C@@H](CO)C(=O)N[C@@H](Cc1ccc(O)cc1)C(=O)N[C@@H](CCC(N)=O)C(=O)N[C@@H](Cc1ccccc1)C(=O)O` [3102.0425] (H-SIYRMSYQF-OH) the IC50 was 0.8 nM.
`CSCC[C@H](NC(=O)[C@H](C)NC(=O)[C@@H](N)CC(C)C)C(=O)N[C@@H](CC(N)=O)C(=O)N[C@@H](CO)C(=O)N[C@H](C(=O)N[C@@H](Cc1ccccc1)C(=O)N[C@H](C(=O)N[C@@H](Cc1ccccc1)C(=O)O)[C@@H](C)O)C(C)C` [3102.0426] (H-LAMNSVFTF-OH) gave an IC50 of 16 nM.
`CC[C@H](C)[C@H](NC(=O)[C@H](CC(C)C)NC(=O)[C@@H](NC(=O)[C@H](CC(N)=O)NC(=O)[C@H](CC(N)=O)NC(=O)[C@H](CO)NC(=O)[C@H](Cc1ccccc1)NC(=O)[C@H](CCSC)NC(=O)[C@@H](N)CCCCN)C(C)C)C(=O)O` [3102.0427] (H-KMFSNNVLI-OH) showed an IC50 of 1.1 nM.
For `CC[C@H](C)[C@H](NC(=O)[C@H](CC(C)C)NC(=O)[C@@H](N)CCCNC(=N)N)C(=O)N[C@@H](CC(N)=O)C(=O)N[C@@H](CC(N)=O)C(=O)N[C@@H](CCCNC(=N)N)C(=O)N[C@H](C(=O)N[C@@H](CC(C)C)C(=O)N[C@@H](Cc1ccccc1)C(=O)O)C(C)C` [3102.0428] (H-RLINNRVLF-OH), the IC50 was 5.7 nM.
Work on `CC[C@H](C)[C@H](NC(=O)[C@H](CCCCN)NC(=O)[C@H](Cc1ccccc1)NC(=O)[C@H](CC(N)=O)NC(=O)[C@H](CC(N)=O)NC(=O)[C@H](Cc1ccccc1)NC(=O)[C@H](CC(C)C)NC(=O)[C@@H](NC(=O)[C@@H](N)CCCNC(=N)N)C(C)C)C(=O)O` [3102.0429] (H-RVLFNNFKI-OH) yielded an IC50 of 0.89 nM.
In the case of `CC[C@H](C)[C@H](NC(=O)[C@@H](NC(=O)[C@H](CC(N)=O)NC(=O)[C@H](Cc1ccccc1)NC(=O)[C@H](Cc1ccccc1)NC(=O)[C@@H](NC(=O)[C@@H](NC(=O)[C@@H](NC(=O)[C@@H](N)CCCCN)C(C)C)C(C)C)[C@@H](C)CC)[C@@H](C)O)C(=O)O` [3102.0430] (H-KVVIFFNTI-OH), the IC50 is reported as 8.3 nM.
`CC[C@H](C)[C@H](NC(=O)[C@@H](NC(=O)[C@@H](NC(=O)[C@H](CC(N)=O)NC(=O)[C@H](Cc1ccccc1)NC(=O)[C@H](Cc1ccccc1)NC(=O)[C@@H](NC(=O)[C@@H](NC(=O)[C@@H](N)C(C)C)C(C)C)[C@@H](C)CC)[C@@H](C)O)[C@@H](C)CC)C(=O)O` [3102.0431] (H-VVIFFNTII-OH) gave an IC50 of 15 nM.
In the case of `CC[C@H](C)[C@H](NC(=O)[C@H](CC(N)=O)NC(=O)[C@H](CC(N)=O)NC(=O)[C@H](CC(C)C)NC(=O)[C@@H](NC(=O)[C@H](CC(N)=O)NC(=O)[C@H](Cc1ccc(O)cc1)NC(=O)[C@H](CC(C)C)NC(=O)[C@@H](N)Cc1c[nH]cn1)[C@@H](C)CC)C(=O)O` [3102.0432] (H-HLYNILNNI-OH), the IC50 is reported as 73 nM.
`CC[C@H](C)[C@H](NC(=O)[C@H](CO)NC(=O)[C@@H](NC(=O)[C@H](CCCCN)NC(=O)CNC(=O)[C@H](Cc1ccccc1)NC(=O)[C@H](Cc1ccccc1)NC(=O)[C@@H](NC(=O)[C@@H](N)CCCNC(=N)N)[C@@H](C)CC)[C@@H](C)O)C(=O)O` [3102.0433] (H-RIFFGKTSI-OH) gave an IC50 of 1.3 nM.
In the case of `CC[C@H](C)[C@H](NC(=O)[C@@H](NC(=O)[C@@H](NC(=O)[C@H](CCCCN)NC(=O)[C@H](CC(N)=O)NC(=O)[C@H](CC(N)=O)NC(=O)[C@H](C)NC(=O)[C@H](CC(C)C)NC(=O)[C@@H](N)CCCNC(=N)N)C(C)C)[C@@H](C)O)C(=O)O` [3102.0434] (H-RLANNKVTI-OH), the IC50 is reported as 1.5 nM.
Molecule `CC[C@H](C)[C@H](N)C(=O)N[C@H](C(=O)N[C@H](C(=O)N[C@@H](Cc1ccccc1)C(=O)N[C@@H](Cc1ccccc1)C(=O)N[C@H](C(=O)N[C@H](C(=O)N[C@@H](CC(C)C)C(=O)N[C@H](C(=O)O)[C@@H](C)CC)C(C)C)[C@@H](C)CC)[C@@H](C)CC)[C@@H](C)CC` [3102.0435] (H-IIIFFIVLI-OH) has an IC50 of 14 nM.
`CC[C@H](C)[C@H](N)C(=O)N[C@H](C(=O)N[C@@H](Cc1ccccc1)C(=O)N[C@@H](Cc1ccccc1)C(=O)N[C@H](C(=O)N[C@H](C(=O)N[C@@H](CC(C)C)C(=O)N[C@H](C(=O)N[C@@H](CC(C)C)C(=O)O)[C@@H](C)CC)C(C)C)[C@@H](C)CC)[C@@H](C)CC` [3102.0436] (H-IIFFIVLIL-OH) was tested, and the IC50 was 12 nM.
`CC[C@H](C)[C@H](NC(=O)CNC(=O)[C@@H](NC(=O)[C@H](C)NC(=O)[C@@H](NC(=O)[C@H](CCCNC(=N)N)NC(=O)[C@H](CCSC)NC(=O)[C@H](CC(C)C)NC(=O)[C@@H](N)CCSC)C(C)C)C(C)C)C(=O)O` [3102.0437] (H-MLMRVAVGI-OH) gave an IC50 of 0.69 nM.
For `CC(C)C[C@H](NC(=O)[C@H](CO)NC(=O)[C@H](CC(N)=O)NC(=O)[C@H](CCCNC(=N)N)NC(=O)[C@H](CC(C)C)NC(=O)CNC(=O)[C@H](Cc1ccc(O)cc1)NC(=O)[C@@H](NC(=O)[C@@H](N)CCCNC(=N)N)[C@@H](C)O)C(=O)O` [3102.0438] (H-RTYGLRNSL-OH), the IC50 was 0.63 nM.
For `CC[C@H](C)[C@H](NC(=O)CNC(=O)[C@H](CC(N)=O)NC(=O)[C@H](CO)NC(=O)[C@@H](NC(=O)CNC(=O)[C@H](CC(N)=O)NC(=O)[C@@H](NC(=O)CN)[C@@H](C)O)[C@@H](C)CC)C(=O)O` [3102.0439] (H-GTNGISNGI-OH), the IC50 was 20 nM.
In the case of `CC[C@H](C)[C@H](NC(=O)[C@H](CCC(=O)O)NC(=O)[C@H](CS)NC(=O)[C@@H](NC(=O)[C@@H](N)CO)[C@@H](C)CC)C(=O)N[C@H](C(=O)N[C@@H](Cc1ccc(O)cc1)C(=O)N[C@@H](CO)C(=O)N[C@@H](Cc1ccccc1)C(=O)O)C(C)C` [3102.0440] (H-SICEIVYSF-OH), the IC50 is reported as 0.35 nM.
In the case of `CC[C@H](C)[C@H](N)C(=O)N[C@H](C(=O)N[C@@H](Cc1c[nH]c2ccccc12)C(=O)N[C@@H](CCCCN)C(=O)NCC(=O)N[C@H](C(=O)N[C@@H](Cc1ccc(O)cc1)C(=O)N[C@H](C(=O)N[C@@H](Cc1ccc(O)cc1)C(=O)O)[C@@H](C)O)[C@@H](C)CC)[C@@H](C)CC` [3102.0441] (H-IIWKGIYTY-OH), the IC50 is reported as 3.3 nM.
For `CC(C)C[C@H](NC(=O)[C@H](CO)NC(=O)[C@@H](N)CCCCN)C(=O)N[C@@H](CCCCN)C(=O)N[C@@H](CCCCN)C(=O)N[C@H](C(=O)N[C@@H](Cc1ccc(O)cc1)C(=O)N[C@H](C(=O)N[C@@H](Cc1ccccc1)C(=O)O)[C@@H](C)O)C(C)C` [3102.0442] (H-KSLKKVYTF-OH), the IC50 was 0.49 nM.
In the case of `CC[C@H](C)[C@H](NC(=O)[C@H](CO)NC(=O)[C@H](CCCCN)NC(=O)[C@H](Cc1ccccc1)NC(=O)[C@H](CC(C)C)NC(=O)[C@@H](NC(=O)[C@@H](N)CCSC)[C@@H](C)O)C(=O)N[C@@H](CC(C)C)C(=O)N[C@@H](Cc1ccccc1)C(=O)O` [3102.0443] (H-MTLFKSILF-OH), the IC50 is reported as 11 nM.
For `CC[C@H](C)[C@H](NC(=O)[C@H](CO)NC(=O)[C@H](C)NC(=O)[C@H](Cc1ccc(O)cc1)NC(=O)[C@@H](NC(=O)[C@H](CCC(=O)O)NC(=O)[C@H](CC(N)=O)NC(=O)[C@@H](NC(=O)[C@@H](N)CC(C)C)[C@@H](C)O)[C@@H](C)CC)C(=O)O` [3102.0445] (H-LTNEIYASI-OH), the IC50 was 13 nM.
Work on `CC[C@H](C)[C@H](NC(=O)[C@H](CC(N)=O)NC(=O)[C@H](CCSC)NC(=O)[C@H](CCSC)NC(=O)[C@@H](N)Cc1ccc(O)cc1)C(=O)N[C@@H](Cc1ccc(O)cc1)C(=O)N[C@@H](CC(C)C)C(=O)N[C@@H](CC(N)=O)C(=O)N[C@@H](Cc1ccccc1)C(=O)O` [3102.0446] (H-YMMNIYLNF-OH) yielded an IC50 of 2.9 nM.
Molecule `CC[C@H](C)[C@H](NC(=O)[C@H](CCSC)NC(=O)[C@H](CC(=O)O)NC(=O)[C@H](CCSC)NC(=O)[C@@H](N)CC(C)C)C(=O)N[C@H](C(=O)N[C@@H](CC(C)C)C(=O)N[C@@H](CO)C(=O)N[C@@H](CC(C)C)C(=O)O)[C@@H](C)O` [3102.0448] (H-LMDMITLSL-OH) has an IC50 of 30 nM.
